Several values for one entry are separate records, joined by “and”; a condition that tells them apart may be missing. Identical values can stand only once.
What was measured:
[1] = test system: Ikbke; assay: RT-qPCR of Ikbke in eWAT and BAT; assay type: in vivo; details: db/db mice, both doses of BJ
Source text: Total RNA was isolated from 3T3-L1 cells and adipose tissue homogenates using Trizol reagent (Invitrogen, Carlsbad, CA, USA). RNA concentration and purity were examined at 260/280 nm using a nanodrop spectrophotometer (NanoDrop One, Thermo Fisher Scientific, USA). The total RNA was reverse transcribed to cDNA using the EasyScript All-in-One First-Strand cDNA Synthesis SuperMix for qPCR kit (TransGen Biotech, Beijing, China). The quantitative reverse transcription polymerase chain reaction was performed using TransStart Top Green qPCR SuperMix (TransGen Biotech, Beijing, China) and an Applied Biosystems 7500 RealTime PCR System (Life Technologies, USA). Relative expression levels were normalized to gapdh expression and quantified using the 2^-ΔΔCt method. The primers were synthesized by Shanghai Sangon Biotech, and the detailed primer sequences were shown in Supplementary Table 5 in the supplementary materials.

[2] = test system: cAMP, glycerol release; assay: cAMP levels and glycerol release in TNF-α induced 3T3-L1 adipocytes (isoproterenol); assay type: cell-based, Murine
Protocol: The epididymal adipose tissue was dissected, the fresh adipose tissue was weighed and rapidly rinsed with PBS. The adipose tissue was cut and incubated with isoproterenol (10 μM) for 2 h, and homogenized in a cold cleavage buffer to prepare the adipose tissue homogenate. Then the homogenate was centrifuged at 12,000 × g at 4 °C for 15 min, and the supernatant was collected. […] Then the cells were lysed in a petri dish, scraped off, and centrifuged at 12,000 × g at 4 °C for 15 min before the supernatant was collected. […] And concentrations were further standardized according to protein concentration.

[3] = test system: db/db mice; assay: Indirect calorimetry (CLAMS): VO2, VCO2, RER; assay type: in vivo; set-up: Figure 3g (VCO2), individual mice 1-6: unit not given here; details: for Figure 3g (VCO2), individual mice 1-6 / Figure 3e (VO2), individual mice 1-6: BBR 150mg/kg; for Figure 3e (VO2), individual mice 1-6: in mL/kg/h (unit assumed); for Average RER (VCO2/VO2) / Average VCO2 / Average VO2: 150 mg/kg for 5 weeks, individual mice, 150 mg/kg
Protocol: At week 5 of treatment, basal metabolic parameters of mice were measured using the Comprehensive Lab Animal Monitoring System (CLAMS, Columbus Instruments, Columbus, OH). […] The number of times the infrared beams were broken along the X- or Y-axis was used to measure the dynamic activity of mice. The respiratory exchange rate (RER) was calculated using classical Lusk theory and equations RER = VCO2/VO2.

[4] = no reference given; cited from earlier work

Compound: CC(C)Cc1ccc(C(C)C(=O)[O-])cc1.COc1ccc2cc3[n+](cc2c1OC)CCc1cc2c(cc1-3)OCO2.O.O.O.O [BJ, berberine-ibuprofen]
- Ikbke mRNA expression in BAT [1]: had no effect
- mRNA level of IKKε (Ikbke) in eWAT [1]: significantly reduced
- Glycerol release in differentiated 3T3-L1 adipocytes induced by TNF-α ([2]; BJ): 92.8546 µmol/L and 97.0733 µmol/L and 93.6983 µmol/L
- cAMP levels in differentiated 3T3-L1 adipocytes induced by TNF-α ([2]; BJ): 0.2237 pmol/mg protein and 0.2235 pmol/mg protein and 0.2307 pmol/mg protein
- Glycerol release in differentiated 3T3-L1 adipocytes induced by TNF-α ([2]; BJ+TNF-α(50ng/ml)): 63.3237 µmol/L and 59.9487 µmol/L and 58.2612 µmol/L
- cAMP levels in differentiated 3T3-L1 adipocytes induced by TNF-α ([2]; BJ+TNF-α(50ng/ml)): 0.1653 pmol/mg protein and 0.1544 pmol/mg protein and 0.1605 pmol/mg protein
- Glycerol release in differentiated 3T3-L1 adipocytes induced by TNF-α ([2]; ISO+BJ): 186.51 µmol/L and 191.572 µmol/L and 183.135 µmol/L
- cAMP levels in differentiated 3T3-L1 adipocytes induced by TNF-α ([2]; ISO+BJ): 0.3839 pmol/mg protein and 0.37 pmol/mg protein and 0.3787 pmol/mg protein
- Glycerol release in differentiated 3T3-L1 adipocytes induced by TNF-α ([2]; ISO+BJ+TNF-α(50ng/ml)): 167.104 µmol/L and 166.26 µmol/L
- cAMP levels in differentiated 3T3-L1 adipocytes induced by TNF-α ([2]; ISO+BJ+TNF-α(50ng/ml)): 0.248 pmol/mg protein and 0.2422 pmol/mg protein and 0.2461 pmol/mg protein
- Glycerol release and cAMP levels ([2]; TNF-α induced 3T3-L1 adipocytes, BJ pretreatment, isoproterenol stimulation): promoted glycerol release, increased cAMP levels

Compound: COc1ccc2cc3[n+](cc2c1OC)CCc1cc2c(cc1-3)OCO2 [BBR, Berberine chloride dihydrate]
- Figure 3g (VCO2), individual mice 1-6 ([3]; TIME 09:00:00): 2187 and 1798.5 and 1382 and 1550.5 and 1282 and 1729
- Figure 3e (VO2), individual mice 1-6 ([3]; TIME 09:00:00): 2463.5 and 1992.5 and 1618.5 and 1830.5 and 1604 and 1996.5
- Figure 3g (VCO2), individual mice 1-6 ([3]; TIME 10:00:00): 2025.5 and 1306.5 and 1293 and 1507.5 and 1152.5 and 1351.5
- Figure 3e (VO2), individual mice 1-6 ([3]; TIME 10:00:00): 2239.5 and 1396.5 and 1525.5 and 1818.5 and 1443 and 1558.5
- Figure 3g (VCO2), individual mice 1-6 ([3]; TIME 11:00:00): 1508.5 and 1801 and 1600.5 and 1450.5 and 1810.5 and 2131.5
- Figure 3e (VO2), individual mice 1-6 ([3]; TIME 11:00:00): 1686.5 and 2034 and 1941 and 1727 and 2185.5 and 2486.5
- Figure 3g (VCO2), individual mice 1-6 ([3]; TIME 12:00:00): 1560 and 1682.5 and 1287 and 1655.5 and 1234 and 1351
- Figure 3e (VO2), individual mice 1-6 ([3]; TIME 12:00:00): 1799.5 and 1905 and 1604.5 and 1986.5 and 1472.5 and 1528
- Figure 3g (VCO2), individual mice 1-6 ([3]; TIME 13:00:00): 1425.5 and 1753 and 2069 and 1636 and 1111.5 and 1447.5
- Figure 3e (VO2), individual mice 1-6 ([3]; TIME 13:00:00): 1585 and 1943.5 and 2523.5 and 1919 and 1415 and 1703
- Figure 3g (VCO2), individual mice 1-6 ([3]; TIME 14:00:00): 1628.5 and 1269.5 and 1997.5 and 1334 and 1382 and 1265.5
- Figure 3e (VO2), individual mice 1-6 ([3]; TIME 14:00:00): 1785 and 1394 and 2318.5 and 1559 and 1696.5 and 1512.5
- Figure 3g (VCO2), individual mice 1-6 ([3]; TIME 15:00:00): 1579.5 and 1285 and 1642.5 and 1147.5 and 2064.5 and 1675
- Figure 3e (VO2), individual mice 1-6 ([3]; TIME 15:00:00): 1826 and 1499.5 and 1948.5 and 1433.5 and 2445.5 and 1943
- Figure 3g (VCO2), individual mice 1-6 ([3]; TIME 16:00:00): 1579 and 1741 and 1899.5 and 1326 and 1630.5 and 1658.5
- Figure 3e (VO2), individual mice 1-6 ([3]; TIME 16:00:00): 1816.5 and 2044.5 and 2249 and 1622.5 and 1845.5 and 1914
- Figure 3g (VCO2), individual mice 1-6 ([3]; TIME 17:00:00): 1290.5 and 1905.5 and 1610 and 1666.5 and 1315 and 1412.5
- Figure 3e (VO2), individual mice 1-6 ([3]; TIME 17:00:00): 1507 and 2598 and 1769 and 2019 and 1551.5 and 1596.5
- Figure 3g (VCO2), individual mice 1-6 ([3]; TIME 18:00:00): 1292.5 and 1365.5 and 1937 and 1461.5 and 1206 and 1444
- Figure 3e (VO2), individual mice 1-6 ([3]; TIME 18:00:00): 1496 and 1510 and 2285 and 1793 and 1482.5 and 1701
- Figure 3g (VCO2), individual mice 1-6 ([3]; TIME 19:00:00): 1404 and 1310 and 1770.5 and 1481 and 1876 and 2094
- Figure 3e (VO2), individual mice 1-6 ([3]; TIME 19:00:00): 1643.5 and 1465 and 2034 and 1838.5 and 2235 and 2481.5
- Figure 3g (VCO2), individual mice 1-6 ([3]; TIME 20:00:00): 1181 and 2034.5 and 1933 and 1597 and 1575 and 1493.5
- Figure 3e (VO2), individual mice 1-6 ([3]; TIME 20:00:00): 1393.5 and 2338.5 and 2268.5 and 1885.5 and 1848 and 1679
- Figure 3g (VCO2), individual mice 1-6 ([3]; TIME 21:00:00): 1529.5 and 1566 and 1830 and 1676.5 and 1825.5 and 1630.5
- Figure 3e (VO2), individual mice 1-6 ([3]; TIME 21:00:00): 1863.5 and 1748.5 and 2189 and 2027 and 2201.5 and 1886
- Figure 3g (VCO2), individual mice 1-6 ([3]; TIME 22:00:00): 1627 and 2225 and 1746.5 and 1760.5 and 1520.5 and 2058.5
- Figure 3e (VO2), individual mice 1-6 ([3]; TIME 22:00:00): 1913.5 and 2540.5 and 2028.5 and 2082.5 and 1881 and 2440
- Figure 3g (VCO2), individual mice 1-6 ([3]; TIME 23:00:00): 1717.5 and 1505 and 2209 and 1848.5 and 1914.5 and 1764
- Figure 3e (VO2), individual mice 1-6 ([3]; TIME 23:00:00): 1949 and 1704 and 2610 and 2181 and 2319.5 and 2010
- Figure 3g (VCO2), individual mice 1-6 ([3]; TIME 1900-01-01): 2124.5 and 2214 and 2120 and 1937 and 2080.5 and 2184
- Figure 3g (VCO2), individual mice 1-6 ([3]; TIME 1900-01-01 01:00:00): 2199 and 2168 and 2133.5 and 2137.5
- Figure 3e (VO2), individual mice 1-6 ([3]; TIME 1900-01-01 01:00:00): 2537.5 and 2453.5 and 2566.5 and 2667.5
- Figure 3e (VO2), individual mice 1-6 ([3]; TIME 1900-01-01): 2407.5 and 2513.5 and 2566 and 2292.5 and 2527.5 and 2541
- Average RER (VCO2/VO2) ([3]; db/db mice, day (light)): 0.8616 and 0.8798 and 0.8875 and 0.8398 and 0.8298 and 0.8335
- Average VCO2 ([3]; db/db mice, day (light)): 27.0427 mL/min/kg and 26.0915 mL/min/kg and 26.8287 mL/min/kg and 27.4625 mL/min/kg and 24.4077 mL/min/kg and 25.0565 mL/min/kg
- Average VO2 ([3]; db/db mice, day (light)): 31.4158 mL/min/kg and 29.6362 mL/min/kg and 30.277 mL/min/kg and 32.69 mL/min/kg and 29.3548 mL/min/kg and 30.0223 mL/min/kg
- Average RER (VCO2/VO2) ([3]; db/db mice, night (dark)): 0.8596 and 0.865 and 0.8782 and 0.8452 and 0.8334 and 0.8299
- Average VCO2 ([3]; db/db mice, night (dark)): 30.8835 mL/min/kg and 33.2053 mL/min/kg and 32.3175 mL/min/kg and 33.4173 mL/min/kg and 30.4887 mL/min/kg and 29.875 mL/min/kg
- Average VO2 ([3]; db/db mice, night (dark)): 35.933 mL/min/kg and 38.3562 mL/min/kg and 36.82 mL/min/kg and 39.5103 mL/min/kg and 36.573 mL/min/kg and 36.013 mL/min/kg
- Oxygen consumption (VO2) and carbon dioxide elimination (VCO2) levels ([3]; db/db mice, light-dark cycle, 5 weeks of treatment, vs vehicle): significantly higher than those in the vehicle-treated group
- Oral bioavailability [4]: below 1%

Reference: publication PMC9374667 (Communications Biology, 2022)
